System: recombinant NL-Rluc virus
Assay: Inhibition of HIV replication (NL-RLuc luciferase reporter virus, MT-2 cells)
Assay type: cell-based
Conditions: Human immunodeficiency virus 1, MT2, 120 h, read-out: Activity

`Cc1nc2cc(C(=O)N3CCC(N4CCCCC4)CC3)nn2c(-c2cc(F)c3c(c2C)CCCO3)c1[C@H](OC(C)(C)C)C(=O)O` [Example 95, (2S)-2-(2-([1,4′-bipiperidine]-1′-carbonyl)-7-(8-fluoro-5-methylchroman-6-yl)-5-methylpyrazolo[1,5-a]pyrimidin-6-yl)-2-(tert-butoxy)acetic acid] and `Cc1nc2cc(C(=O)N3CCN(CCN4CCOCC4)CC3)nn2c(-c2cc(F)c3c(c2C)CCCO3)c1[C@H](OC(C)(C)C)C(=O)O` [Example 91, (2S)-2-(tert-butoxy)-2-(7-(8-fluoro-5-methylchroman-6-yl)-5-methyl-2-(4-(2-morpholinoethyl)piperazine-1-carbonyl)pyrazolo[1,5-a]pyrimidin-6-yl)acetic acid] cannot be ordered by EC50: greater than 1 µM for the first, greater than 1 µM for the second.

First: CCCOCCNC(=O)c1cc2nc(C)c([C@H](OC(C)(C)C)C(=O)O)c(-c3cc(F)c4c(c3C)CCCO4)n2n1 [Example 133, (2S)-2-(tert-butoxy)-2-(7-(8-fluoro-5-methylchroman-6-yl)-5-methyl-2-((2-propoxyethyl)carbamoyl)pyrazolo[1,5-a]pyrimidin-6-yl)acetic acid]
Second: Cc1nc2cc(C(=O)NCCCn3ccnc3)nn2c(-c2cc(F)c3c(c2C)CCCO3)c1[C@H](OC(C)(C)C)C(=O)O [Example 51]
The EC50 of the first is lower: 0.1 to 1 µM for the first, greater than 1 µM for the second. The first is the more potent here.

`Cc1nc2cc(C(=O)Nc3ccccc3)nn2c(-c2cc(F)c3c(c2C)CCCO3)c1[C@H](OC(C)(C)C)C(=O)O` [Example 123, (2S)-2-(tert-butoxy)-2-(7-(8-fluoro-5-methylchroman-6-yl)-5-methyl-2-(phenylcarbamoyl)pyrazolo[1,5-a]pyrimidin-6-yl)acetic acid] and `Cc1ccc(NC(=O)c2cc3nc(C)c([C@H](OC(C)(C)C)C(=O)O)c(-c4cc(F)c5c(c4C)CCCO5)n3n2)cc1` [Example 15, (2S)-2-(tert-butoxy)-2-(7-(8-fluoro-5-methylchroman-6-yl)-5-methyl-2-(p-tolylcarbamoyl)pyrazolo[1,5-a]pyrimidin-6-yl)acetic acid] cannot be ordered by EC50: less than 0.1 µM for the first, less than 0.1 µM for the second.

First: Cc1nc2cc(C(=O)NCC3CCCO3)nn2c(-c2cc(F)c3c(c2C)CCCO3)c1[C@H](OC(C)(C)C)C(=O)O (stereo partly drawn) [Example 77, (2S)-2-(tert-butoxy)-2-(7-(8-fluoro-5-methylchroman-6-yl)-5-methyl-2-(((tetrahydrofuran-2-yl)methyl)carbamoyl)pyrazolo[1,5-a]pyrimidin-6-yl)acetic acid]
Second: Cc1nc2cc(C(=O)NCCC3CCCCC3)nn2c(-c2cc(F)c3c(c2C)CCCO3)c1[C@H](OC(C)(C)C)C(=O)O [Example 128, (2S)-2-(tert-butoxy)-2-(2-((2-cyclohexylethyl)carbamoyl)-7-(8-fluoro-5-methylchroman-6-yl)-5-methylpyrazolo[1,5-a]pyrimidin-6-yl)acetic acid]
The EC50 of the first is higher: 0.1 to 1 µM for the first, less than 0.1 µM for the second.

First: Cc1nc2cc(C(=O)NCc3cccc(N4CCOCC4)c3)nn2c(-c2cc(F)c3c(c2C)CCCO3)c1[C@H](OC(C)(C)C)C(=O)O [Example 100]
Second: COc1cccc(CNC(=O)c2cc3nc(C)c([C@H](OC(C)(C)C)C(=O)O)c(-c4cc(F)c5c(c4C)CCCO5)n3n2)c1 [Example 71]
The EC50 of the first is higher: 0.1 to 1 µM for the first, less than 0.1 µM for the second. The second is the more potent here.

`Cc1nc2cc(C(=O)N(C)CCc3ccccn3)nn2c(-c2cc(F)c3c(c2C)CCCO3)c1[C@H](OC(C)(C)C)C(=O)O` [Example 89, (2S)-2-(tert-butoxy)-2-(7-(8-fluoro-5-methylchroman-6-yl)-5-methyl-2-(methyl(2-(pyridin-2-yl)ethyl)carbamoyl)pyrazolo[1,5-a]pyrimidin-6-yl)acetic acid] and `Cc1nc2cc(C(=O)NCc3ccccn3)nn2c(-c2cc(F)c3c(c2C)CCCO3)c1[C@H](OC(C)(C)C)C(=O)O` [Example 104, (2S)-2-(tert-butoxy)-2-(7-(8-fluoro-5-methylchroman-6-yl)-5-methyl-2-((pyridin-2-ylmethyl)carbamoyl)pyrazolo[1,5-a]pyrimidin-6-yl)acetic acid] cannot be ordered by EC50: greater than 1 µM for the first, greater than 1 µM for the second.

First: Cc1nc2cc(C(=O)NCc3ccc(F)cc3-n3ncnc3C)nn2c(-c2cc(F)c3c(c2C)CCCO3)c1C(OC(C)(C)C)C(=O)O (stereo in doubt) [Example 9, (2S)-2-(tert-butoxy)-2-(2-((4-fluoro-2-(5-methyl-1H-1,2,4-triazol-1-yl)benzyl)carbamoyl)-7-(8-fluoro-5-methylchroman-6-yl)-5-methylpyrazolo[1,5-a]pyrimidin-6-yl)acetic acid]
Second: Cc1nc2cc(C(=O)NCc3ccc(F)cc3N3CCCC3=O)nn2c(-c2cc(F)c3c(c2C)CCCO3)c1[C@H](OC(C)(C)C)C(=O)O [Example 12, (2S)-2-(tert-butoxy)-2-(2-((4-fluoro-2-(2-oxopyrrolidin-1-yl)benzyl)carbamoyl)-7-(8-fluoro-5-methylchroman-6-yl)-5-methylpyrazolo[1,5-a]pyrimidin-6-yl)acetic acid]
The EC50 of the first is lower: 0.1 to 1 µM for the first, greater than 1 µM for the second.

`Cc1nc2cc(C(=O)N3CCC(c4ccc(Cl)cc4)CC3)nn2c(-c2cc(F)c3c(c2C)CCCO3)c1[C@H](OC(C)(C)C)C(=O)O` [Example 86, (2S)-2-(tert-butoxy)-2-(2-(4-(4-chlorophenyl)piperidine-1-carbonyl)-7-(8-fluoro-5-methylchroman-6-yl)-5-methylpyrazolo[1,5-a]pyrimidin-6-yl)acetic acid] and `Cc1ccccc1CNC(=O)c1cc2nc(C)c([C@H](OC(C)(C)C)C(=O)O)c(-c3cc(F)c4c(c3C)CCCO4)n2n1` [Example 7, (2S)-2-(tert-butoxy)-2-(7-(8-fluoro-5-methylchroman-6-yl)-5-methyl-2-((2-methylbenzyl)carbamoyl)pyrazolo[1,5-a]pyrimidin-6-yl)acetic acid] cannot be ordered by EC50: less than 0.1 µM for the first, less than 0.1 µM for the second.

`Cc1nc2cc(C(=O)N(C)Cc3ccc(Cl)c(Cl)c3)nn2c(-c2cc(F)c3c(c2C)CCCO3)c1[C@H](OC(C)(C)C)C(=O)O` [Example 115, (2S)-2-(tert-butoxy)-2-(2-((3,4-dichlorobenzyl)(methyl)carbamoyl)-7-(8-fluoro-5-methylchroman-6-yl)-5-methylpyrazolo[1,5-a]pyrimidin-6-yl)acetic acid] and `Cc1nc2cc(C(=O)N(C)Cc3cccc(F)c3)nn2c(-c2cc(F)c3c(c2C)CCCO3)c1[C@H](OC(C)(C)C)C(=O)O` [Example 23] cannot be ordered by EC50: less than 0.1 µM for the first, less than 0.1 µM for the second.

`COc1ccccc1CNC(=O)c1cc2nc(C)c([C@H](OC(C)(C)C)C(=O)O)c(-c3cc(F)c4c(c3C)CCCO4)n2n1` [Example 42, (2S)-2-(tert-butoxy)-2-(7-(8-fluoro-5-methylchroman-6-yl)-2-((2-methoxybenzyl)carbamoyl)-5-methylpyrazolo[1,5-a]pyrimidin-6-yl)acetic acid] and `Cc1nc2cc(C(=O)NCc3ccc(F)c(C(F)F)c3)nn2c(-c2cc(F)c3c(c2C)CCCO3)c1[C@H](OC(C)(C)C)C(=O)O` [Example 27] cannot be ordered by EC50: less than 0.1 µM for the first, less than 0.1 µM for the second.

With `Cc1cc(CNC(=O)c2nn3c(-c4cc(F)c5c(c4C)CCCO5)c([C@H](OC(C)(C)C)C(=O)O)c(C)nc3c2Cl)ccc1F` [Example 140, (2S)-2-(tert-Butoxy)-2-(3-chloro-2-((4-fluoro-3-methylbenzyl)carbamoyl)-7-(8-fluoro-5-methylchroman-6-yl)-5-methylpyrazolo[1,5-a]pyrimidin-6-yl)acetic acid] the EC50 was less than 0.1 µM.

Same assay, conditions: Human immunodeficiency virus 1, MT2, 120 h, read-out: EC50 μM

`CCCOCCNC(=O)c1cc2nc(C)c([C@H](OC(C)(C)C)C(=O)O)c(-c3cc(F)c4c(c3C)CCCO4)n2n1` [Example 133, (2S)-2-(tert-butoxy)-2-(7-(8-fluoro-5-methylchroman-6-yl)-5-methyl-2-((2-propoxyethyl)carbamoyl)pyrazolo[1,5-a]pyrimidin-6-yl)acetic acid] gave an EC50 of 0.185 µM.

From patent publication US8791108B2, “Inhibitors of human immunodeficiency virus replication” (priority 2011, dated 2014)
